Measurements as given in patent US20230212123A1, “Pyridine Inhibitors of Glucosylceramide Synthase and Therapeutic Methods Using the Same” (THE REGENTS OF THE UNIVERSITY OF MICHIGAN, priority 2020, published 2023).

Experiments:
[1] = molecular target: T1, glucosylceramide synthase (GCS) (Canis lupus familiaris, UniProt A0A8I3MXG6); assay: GCS inhibition in MDCK cell homogenates (Lysate IC50); assay type: biochemical, canine; conditions: MDCK cell homogenate
T1 construct: endogenous in cells; host or cells: MDCK cell homogenate
T1 sequence (A0A8I3MXG6 1-394): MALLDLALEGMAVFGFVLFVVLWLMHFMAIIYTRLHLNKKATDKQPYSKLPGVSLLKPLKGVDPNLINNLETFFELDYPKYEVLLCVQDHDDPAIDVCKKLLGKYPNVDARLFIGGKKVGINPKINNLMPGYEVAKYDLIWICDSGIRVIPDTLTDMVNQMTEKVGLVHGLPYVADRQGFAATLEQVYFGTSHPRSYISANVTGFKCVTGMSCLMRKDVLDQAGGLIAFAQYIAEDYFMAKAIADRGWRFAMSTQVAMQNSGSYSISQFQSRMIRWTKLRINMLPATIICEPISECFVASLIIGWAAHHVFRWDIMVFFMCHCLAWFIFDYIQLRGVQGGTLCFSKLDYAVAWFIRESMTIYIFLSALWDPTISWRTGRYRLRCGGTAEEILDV
Method: GCS Inhibition in MDCK Cell Homogenates (Lysate IC50, Table 1)
IC50 values for new compounds of the invention were determined as reported in Shayman J. A., Abe A. 2000. Glucosylceramide synthase: assay and properties. Methods Enzymol.311: 42-49.

GCS in MDCKII cells = molecular target: T2, GCS in MDCKII cells (Canis lupus familiaris, UniProt A0A8I3MXG6); assay: GCS inhibition in MDCKII cells (glucosylceramide content after 24 h); assay type: cell-based, canine; conditions: 24 hours exposure, glucosylceramide level
T2 construct: whole cellular lipids of wild type MDCKII cells were extracted; endogenous in cells; host or cells: wild type MDCKII cells
T2 sequence (A0A8I3MXG6 1-394): T1 sequence (A0A8I3MXG6 1-394)
Method: GCS Inhibition in MDCKII Cells (MDCKII IC50, Table 1)
MDCKII cells were routinely maintained in medium consisting of Opti-MEM/F12 (1:1), 5% FBS, 100 U/mL of penicillin, 100 µg/mL streptomycin and 200 mM L-glutamine. MDCKII cells were newly thawed from frozen ampules every two months.
Stock solutions of water-insoluble glycosphingolipid inhibitors (100 mM) were prepared by dissolving each inhibitor into 100% ethanol as previously described (3). The inhibitor-ethanol solutions then were diluted 50X into 2 mM delipidated bovine serum albumin-phosphate buffered saline solution to make water-soluble glycosphingolipid inhibitor-bovine serum albumin complexes. The inhibitor-bovine serum album complexes were sterile-filtered and stored at -20° C. Prior to use, portions of the inhibitor-bovine serum albumin complexes were further diluted with Opti-F12 to make treatment solutions. Equal amounts of bovine serum albumin and ethanol were added into the control cultures. Cells (5 x 10^5) were seeded into 10-cm culture dishes containing 10 ml of Opti-F12 with 5% FBS. After 24 hours, the medium was replaced with fresh serum-free Opti-F12 medium, and cells were exposed to candidate GCS inhibitors at concentrations of 0, 1, 3, 10, 30, 100 and 300 nM for 24 hours.
Following inhibitor treatment, whole cellular lipids of wild type MDCKII cells were extracted as previously described in detail (10). Briefly, cells were washed with ice-cold phosphate buffered saline, fixed by methanol, and collected with rubber scraper. Chloroform was then added to yield a theoretical ratio of chloroform:methanol:water at 1:2:0.8 (v/v/v) to form a mono-phase. Cell debris and proteins were removed by centrifugation at 2200 x g for 30 min. The supernatants were portioned by adding chloroform and 0.9% NaCl. The lower organic phases containing neutral glycosphingolipids lipids were washed with methanol and 0.9% NaCl, and subjected to base- and acid-hydrolysis (10). A portion of purified glycosphingolipids normalized to 100 nmol of total phospholipids was analyzed by high performance thin layer chromatography. The thin layer chromatography separations were processed twice. The plate pretreated with 1% sodium borate was first developed in a solvent system consisting of chloroform/methanol (98/2, v/v). After air drying, the plate was then developed in a solvent system containing chloroform/methanol/water (70/30/4, v/v/v). The levels of glucosylceramide were detected by charring with 8% cupric sulfate in 8% phosphoric acid, and quantified by densitometric scanning using ImageJ, NIH Image. Image data was analyzed, and the IC50 of each inhibitor was calculated using GraphPad Prism (version 5.03).

Molecule | IC50 [1] | IC50 (GCS in MDCKII cells)
2-(2,3-dihydro-1H-inden-2-yl)-N-((1R,2R)-1-hydroxy-1-(6-methoxypyridin-3-yl)-3-(pyrrolidin-1-yl)propan-2-yl)acetamide [Example 1] | > 1000 nM | > 1000 nM
O=C(CC1Cc2ccccc2C1)N[C@H](CN1CCCC1)[C@H](O)c1ccc(OC(F)(F)F)cn1 (racemic) [Example 5, 2-(2,3-dihydro-1H-inden-2-yl)-N-((1S,2R)-1-hydroxy-3-(pyrrolidin-1-yl)-1-(5-(trifluoromethoxy)pyridin-2-yl)propan-2-yl)acetamide] | 249 nM | 6.5 nM
COc1ccc(C(O)[C@@H](CN2CCCC2)NC(=O)CC2Cc3ccccc3C2)nc1 (stereo in doubt) [Example 2, 2-(2,3-dihydro-1H-inden-2-yl)-N-((1R,2R)-1-hydroxy-1-(5-methoxypyridin-2-yl)-3-(pyrrolidin-1-yl)propan-2-yl)acetamide] | 24.8 nM | 6.8 nM
O=C(CC1Cc2ccccc2C1)N[C@H](CN1CCCC1)[C@H](O)c1cc(Cl)ccn1 (stereo in doubt) [Example 23, (+/-)-N-(1-(4-chloropyridin-2-yl)-1-hydroxy-3-(pyrrolidin-1-yl)propan-2-yl)-2-(2,3-dihydro-1H-inden-2-yl)acetamide] | 16.1 nM | –
O=C(CC1Cc2ccccc2C1)N[C@@H](CN1CCCC1)[C@@H](O)c1cc(Cl)ccn1 (stereo in doubt) [Example 26] | > 2000 nM | –
COc1cccc([C@@H](O)[C@@H](CN2CCCC2)NC(=O)CC2Cc3ccccc3C2)n1 [Example 3, 2-(2,3-dihydro-1H-inden-2-yl)-N-((1S,2R)-1-hydroxy-1-(6-methoxypyridin-2-yl)-3-(pyrrolidin-1-yl)propan-2-yl)acetamide] | 198 nM | 30.5 nM
O=C(CC1Cc2ccccc2C1)N[C@H](CN1CCCC1)[C@H](O)c1ccccn1 [Example 4, 2-(2,3-dihydro-1H-inden-2-yl)-N-((1S,2R)-1-hydroxy-1-(pyridin-2-yl)-3-(pyrrolidin-1-yl)propan-2-yl)acetamide] | 152 nM | 16.9 nM
O=C(CC1Cc2ccccc2C1)N[C@H](CN1CCCC1)[C@H](O)c1ccc(OCC(F)(F)F)cn1 [Example 6, 2-(2,3-dihydro-1H-inden-2-yl)-N-((1S,2R)-1-hydroxy-3-(pyrrolidin-1-yl)-1-(5-(2,2,2-trifluoroethoxy)pyridin-2-yl)propan-2-yl)acetamide] | 21.7 nM | 2.4 nM
CC(C)(C)Oc1ccc([C@@H](O)[C@@H](CN2CCCC2)NC(=O)CC2Cc3ccccc3C2)nc1 [Example 7, N-((1S,2R)-1-(5-(tert-butoxy)pyridin-2-yl)-1-hydroxy-3-(pyrrolidin-1-yl)propan-2-yl)-2-(2,3-dihydro-1H-inden-2-yl)acetamide] | 16.3 nM | 7.9 nM
COc1cc([C@@H](O)[C@@H](CN2CCCC2)NC(=O)CC2Cc3ccccc3C2)ccn1 [Example 8, 2-(2,3-dihydro-1H-inden-2-yl)-N-((1R,2R)-1-hydroxy-1-(2-methoxypyridin-4-yl)-3-(pyrrolidin-1-yl)propan-2-yl)acetamide] | 56 nM | 94.6 nM
COc1cncc([C@@H](O)[C@@H](CN2CCCC2)NC(=O)CC2Cc3ccccc3C2)c1 [Example 9, 2-(2,3-dihydro-1H-inden-2-yl)-N-((1R,2R)-1-hydroxy-1-(5-methoxypyridin-3-yl)-3-(pyrrolidin-1-yl)propan-2-yl)acetamide] | > 5000 nM | > 1000 nM
COc1ccc([C@@H](O)[C@@H](CN2CCCC2)N(C)C(=O)CC2Cc3ccccc3C2)nc1 [Example 10] | 37.4 nM | 15.8 nM
COc1ccc([C@H](O)[C@H](CN2CCCC2)NC(=O)CC2Cc3ccccc3C2)nc1 [Example 11, 2-(2,3-dihydro-1H-inden-2-yl)-N-((1R,2S)-1-hydroxy-1-(5-methoxypyridin-2-yl)-3-(pyrrolidin-1-yl)propan-2-yl)acetamide] | > 2000 nM | –
COc1ccnc([C@@H](O)[C@@H](CN2CCCC2)NC(=O)CC2Cc3ccccc3C2)c1 [Example 12, 2-(2,3-dihydro-1H-inden-2-yl)-N-((1S,2R)-1-hydroxy-1-(4-methoxypyridin-2-yl)-3-(pyrrolidin-1-yl)propan-2-yl)acetamide] | 24900 nM | 79.5 nM
O=C(CC1Cc2ccccc2C1)N[C@H](CN1CCCC1)[C@H](O)c1cccnc1 [Example 13, 2-(2,3-dihydro-1H-inden-2-yl)-N-((1R,2R)-1-hydroxy-1-(pyridin-3-yl)-3-(pyrrolidin-1-yl)propan-2-yl)acetamide] | 182 nM | 594 nM
COc1cccnc1[C@@H](O)[C@@H](CN1CCCC1)NC(=O)CC1Cc2ccccc2C1 [Example 14, 2-(2,3-dihydro-1H-inden-2-yl)-N-((1S,2R)-1-hydroxy-1-(3-methoxypyridin-2-yl)-3-(pyrrolidin-1-yl)propan-2-yl)acetamide] | > 2000 nM | 444 nM
COc1ccc([C@@H](O)[C@@H](CN2CC3CC3C2)NC(=O)CC2Cc3ccccc3C2)nc1 (stereo partly drawn) [Example 15, N-((1S,2R)-3-(3-azabicyclo[3.1.0]hexan-3-yl)-1-hydroxy-1-(5-methoxypyridin-2-yl)propan-2-yl)-2-(2,3-dihydro-1H-inden-2-yl)acetamide] | 21.3 nM | 9.3 nM
COc1ccc([C@@H](O)[C@@H](CN2CCC(C)(C)C2)NC(=O)CC2Cc3ccccc3C2)nc1 [Example 16, 2-(2,3-dihydro-1H-inden-2-yl)-N-((1S,2R)-3-(3,3-dimethylpyrrolidin-1-yl)-1-hydroxy-1-(5-methoxypyridin-2-yl)propan-2-yl)acetamide] | > 2000 nM | > 1000 nM
CC(C)(C)Oc1ccc([C@H](O)[C@H](CN2CCCC2)NC(=O)CC2Cc3ccccc3C2)nc1 [Example 18, N-((1R,2S)-1-(5-(tert-butoxy)pyridin-2-yl)-1-hydroxy-3-(pyrrolidin-1-yl)propan-2-yl)-2-(2,3-dihydro-1H-inden-2-yl)acetamide] | > 2000 nM | –
COc1ccc([C@@H](O)[C@@H](CN2CC[C@@H](F)C2)NC(=O)CC2Cc3ccccc3C2)nc1 [Example 19, 2-(2,3-dihydro-1H-inden-2-yl)-N-((1S,2R)-3-((R)-3-fluoropyrrolidin-1-yl)-1-hydroxy-1-(5-methoxypyridin-2-yl)propan-2-yl)acetamide] | 82 nM | 13.9 nM
O=C(CC1Cc2ccccc2C1)N[C@H](CN1CCCC1)[C@H](O)c1cccc(Cl)n1 [Example 20, N-((1S,2R)-1-(6-chloropyridin-2-yl)-1-hydroxy-3-(pyrrolidin-1-yl)propan-2-yl)-2-(2,3-dihydro-1H-inden-2-yl)acetamide] | 131 nM | 61 nM
O=C(CC1Cc2ccccc2C1)N[C@@H](CN1CCCC1)[C@@H](O)c1ccc(OC(F)(F)F)cn1 [Example 22, 2-(2,3-dihydro-1H-inden-2-yl)-N-((1R,2S)-1-hydroxy-3-(pyrrolidin-1-yl)-1-(5-(trifluoromethoxy)pyridin-2-yl)propan-2-yl)acetamide] | > 1000 nM | –
O=C(CC1Cc2ccccc2C1)N[C@H](CN1CCCC1)[C@H](O)c1ccnc(Cl)c1 [Example 27, N-((1R,2R)-1-(2-chloropyridin-4-yl)-1-hydroxy-3-(pyrrolidin-1-yl)propan-2-yl)-2-(2,3-dihydro-1H-inden-2-yl)acetamide] | – | 66.6 nM
